In PMC3380923, “Structure Analysis of Entamoeba histolytica DNMT2 (EhMeth)” (PLoS ONE, 2012):

Target: T1, EhMeth (Entamoeba histolytica, UniProt Q6Q386)
T1 construct: gene meth; GST fusion from pGEX6-P3 in E. coli BL21(DE3), GST cleaved off with PreScission protease; one molecule per asymmetric unit
T1 sequence (Q6Q386 1-322): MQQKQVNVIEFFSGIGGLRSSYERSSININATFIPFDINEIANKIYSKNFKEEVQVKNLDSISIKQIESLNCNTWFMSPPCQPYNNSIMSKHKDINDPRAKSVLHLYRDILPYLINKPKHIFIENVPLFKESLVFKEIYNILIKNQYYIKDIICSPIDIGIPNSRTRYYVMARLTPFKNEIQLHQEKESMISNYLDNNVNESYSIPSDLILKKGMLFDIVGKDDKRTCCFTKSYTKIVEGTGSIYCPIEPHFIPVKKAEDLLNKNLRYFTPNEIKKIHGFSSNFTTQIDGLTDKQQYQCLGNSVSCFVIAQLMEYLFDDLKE
Assay: X-ray crystal structure, […] Å
Conditions: co-crystallised with 150x molar excess AdoHcy, pH 6.5, 20 °C; cofactor-binding pocket

SMILES: Nc1ncnc2c1ncn2[C@@H]1O[C@H](CSCC[C@H](N)C(=O)O)[C@@H](O)[C@H]1O [AdoHcy]
- X-ray crystal structure, 2.15 Å: the crystal structure of the binary complex comprising EhMeth and AdoHcy is presented
